How the values were obtained:
[1] = biological target: T1, interaction between the recombinant extracellular domain (ECD) of PD-1 and native cell-bound PD-L1 (Homo sapiens, UniProt Q9NZQ7); test: CHO/PD-L1 cell capture assay; type: cell-based; conditions: CHO cells overexpressing PD-L1, pre-incubated 1 hr with compound, captured on biotinylated Fc-PD-1 coated plates, 75 min at room temperature
T1 construct: expressed in transfected cells
Procedure, shortened: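 EC50 values came from four-parameter fits of counts of Draq5-stained CHO-PD-L1 cells retained on plate-bound biotinylated Fc-PD-1 ECD, enumerated by high-content imaging. Cells in PBS pH 7.4 with EDTA and 2% BSA had 1 hr compound pre-incubation, then 75 min capture at room temperature.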

PD-1/PD-L1 interaction = biological target: T2, PD-1/PD-L1 interaction (Homo sapiens, UniProt Q9NZQ7); test: PD-1/PD-L1 NFAT reporter co-culture assay; type: cell-based; conditions: Jurkat PD-1 NFAT-luciferase cells co-cultured with aAPC-PD-L1 CHO cells, 6 hrs at 37° C.; read-out: EC50 NFAT Luciferase
T2 construct: expressed in transfected cells; host or cells: CHO cells (aAPC-PD-L1) co-cultured with Jurkat cells overexpressing PD-1 and an NFAT-luciferase reporter
Procedure, shortened: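 Jurkat cells overexpressing PD-1 with NFAT-driven luciferase were mixed with compound in RPMI 1640/2% FBS and seeded onto overnight-plated CHO aAPC-PD-L1 cells expressing surface anti-CD3 and PD-L1. Co-culture ran 6 h at 37 °C; luminescence read with ONE-Glo; EC50 from four-parameter fit.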

PD-L1 = biological target: T3, PD-L1 (Homo sapiens, UniProt Q9NZQ7); test: PD-L1/PD-L1 dimerization biochemical protein-protein interaction assay (ALPHA); type: binding; conditions: compound-induced PD-L1 dimerization, head prints '1 nM' (0.5 nM His-tagged PD-L1 and 0.5 nM FLAG-tagged PD-L1), read-out: AC50 PDL1 Dimer Alpha 1 nM
T3 construct: determine if they can specifically dimerize the extracellular domains of PD-L1
Procedure, shortened: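 After 2 h at 25 °C with compound, His- and FLAG-tagged PD-L1 ECDs (each 0.5 nM final; 25 mM Hepes pH 7.4, 150 mM NaCl) were detected by sequential anti-His acceptor and anti-FLAG donor bead incubations. Dose-response curves fitted to four-parameter equation for AC50.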

PD-1/PD-L1 = PD-1/PD-L1 (Homo sapiens, UniProt Q9NZQ7); test: PD-1/PD-L1 biochemical protein-protein interaction assay (ALPHA); type: binding; conditions: 0.3 nM His tagged PD-L1, 2.5 nM biotinylated Fc-PD-1, 60 minutes at 25° C., read-out: IC50 PD-L1-PD-1 Alpha IC50-mono PD-L1-fcP-D1
Procedure, shortened: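 His-PD-L1 ECD 0.3 nM + biotin-Fc-PD-1 2.5 nM (final), 25 mM Hepes pH 7.4, 150 mM NaCl, 3.4 mM EDTA; 60 min, 25° C; anti-His acceptor/streptavidin donor ALPHA beads; decreased signal = blocked binding; 4-parameter IC50.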

T1 sequence (Q9NZQ7 19-290): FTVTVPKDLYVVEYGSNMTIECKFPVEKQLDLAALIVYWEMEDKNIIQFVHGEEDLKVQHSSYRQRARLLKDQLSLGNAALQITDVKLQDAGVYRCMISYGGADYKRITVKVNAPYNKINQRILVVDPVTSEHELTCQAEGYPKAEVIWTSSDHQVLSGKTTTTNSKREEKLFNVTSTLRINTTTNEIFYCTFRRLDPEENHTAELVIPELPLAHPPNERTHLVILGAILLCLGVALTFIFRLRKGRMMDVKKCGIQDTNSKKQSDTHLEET
T2 sequence (Q9NZQ7 19-290): as above
T3 sequence (Q9NZQ7 19-238 limits assumed): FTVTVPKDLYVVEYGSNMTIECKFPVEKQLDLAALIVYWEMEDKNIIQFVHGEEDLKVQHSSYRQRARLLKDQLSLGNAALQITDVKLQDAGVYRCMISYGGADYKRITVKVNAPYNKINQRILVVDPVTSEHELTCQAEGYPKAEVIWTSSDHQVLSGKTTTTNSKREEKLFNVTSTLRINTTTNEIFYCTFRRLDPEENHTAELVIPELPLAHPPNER
T3 sequence (Q9NZQ7 19-238 limits assumed): as above
PD-1/PD-L1, sequence (Q9NZQ7 19-238 limits assumed): as above

Structure (SMILES) | EC50 [1] | EC50 (PD-1/PD-L1 interaction) | AC50 (PD-L1) | IC50 (PD-1/PD-L1)
COc1nc(OCc2cccc(-c3cccc(COc4nc(OC)c(CN[C@](C)(CO)C(=O)O)cc4Cl)c3C)c2C)c(Cl)cc1CN[C@](C)(CO)C(=O)O [Example 43, (2R,2′R)-2,2′-((((((2,2′-dimethyl-[1,1′-biphenyl]-3,3′-diyl)bis(methylene))bis(oxy))bis(5-chloro-2-methoxypyridine-6,3-diyl))bis(methylene))bis(azanediyl))bis(3-hydroxy-2-methylpropanoic acid)] | 65.2 nM | 79 nM | ≥ 10000 nM | 
COc1nc(OCc2cccc(-c3cccc(COc4nc(OC)c(CNC[C@@H](O)CC(=O)O)cc4C(F)(F)F)c3C)c2C)c(C(F)(F)F)cc1CNC[C@@H](O)CC(=O)O [Example 160, (3S,3′S)-4,4′-((((((2,2′-dimethyl-[1,1′-biphenyl]-3,3′-diyl)bis(methylene))bis(oxy))bis(2-methoxy-5-(trifluoromethyl)pyridine-6,3-diyl))bis(methylene))bis(azanediyl))bis(3-hydroxybutanoic acid)] | 191 nM | 139 nM |  | 0.6 nM
COc1nc(OCc2cccc(-c3cccc(COc4cc(OCc5cncc(C#N)c5)c(CNC[C@@H](O)CC(=O)O)cc4Cl)c3C)c2C)ccc1CNC[C@@H](O)CC(=O)O [Example 203, (S)-4-(((6-((3′-((4-((((S)-3-Carboxy-2-hydroxypropyl)amino)methyl)-2-chloro-5-((5-cyanopyridin-3-yl)methoxy)phenoxy)methyl)-2,2′-dimethyl-[1,1′-biphenyl]-3-yl)methoxy)-2-methoxypyridin-3-yl)methyl)amino)-3-hydroxybutanoic acid] | 317 nM | 696 nM |  | 1 nM
Cc1c(COc2cc(OCc3cncc(C#N)c3)c(CNCCO)cc2Cl)cccc1-c1cccc2c1CCN2C(=O)c1ccc(CNCCO)c(OCc2cncc(C#N)c2)c1 [Example 205, 5-((4-Chloro-5-((3-(1-(3-((5-cyanopyridin-3-yl)methoxy)-4-(((2-hydroxyethyl)amino)methyl)benzoyl)indolin-4-yl)-2-methylbenzyl)oxy)-2-(((2-hydroxyethyl)amino)methyl)phenoxy)methyl)nicotinonitrile] | 394 nM | 1430 nM |  | 6.9 nM
Cc1c(COc2ccc(CNC[C@@H](O)CC(=O)O)c(OCc3cncc(C#N)c3)n2)cccc1-c1cccc(COc2ccc(CNC[C@@H](O)CC(=O)O)c(OCc3cncc(C#N)c3)n2)c1C [Example 242, (3S,3′S)-4,4′-((((((2,2′-dimethyl-[1,1′-biphenyl]-3,3′-diyl)bis(methylene))bis(oxy))bis(2-((5-cyanopyridin-3-yl)methoxy)pyridine-6,3-diyl))bis(methylene))bis(azanediyl))bis(3-hydroxybutanoic acid)] | 129 nM | 288 nM |  | 0.2 nM
COc1cc(OCc2cccc(-c3cccc(COc4cc(OC)c(CNC[C@@H](O)CC(=O)O)c(OCc5cncc(C#N)c5)c4)c3C)c2C)cc(OCc2cncc(C#N)c2)c1CNC[C@@H](O)CC(=O)O [Example 245, (3S,3′S)-4,4′-((((((2,2′-dimethyl-[1,1′-biphenyl]-3,3′-diyl)bis(methylene))bis(oxy))bis(2-((5-cyanopyridin-3-yl)methoxy)-6-methoxy-4,1-phenylene))bis(methylene))bis(azanediyl))bis(3-hydroxybutanoic acid)] | 308 nM | 3440 nM |  | 0.6 nM
Cc1c(COc2ccc(CNC[C@@H](O)CC(=O)O)c(OCc3cncc(C#N)c3)c2)cccc1-c1cccc(COc2ccc(CNC[C@@H](O)CC(=O)O)c(OCc3cncc(C#N)c3)c2)c1C [Example 248, (3S,3′S)-4,4′-((((((2,2′-dimethyl-[1,1′-biphenyl]-3,3′-diyl)bis(methylene))bis(oxy))bis(2-((5-cyanopyridin-3-yl)methoxy)-4,1-phenylene))bis(methylene))bis(azanediyl))bis(3-hydroxybutanoic acid)] | 200 nM | 540 nM |  | 0.2 nM

Other lines, results leading:

EC50 [1] | EC50 (PD-1/PD-L1 interaction) | AC50 (PD-L1) | IC50 (PD-1/PD-L1) | Structure (SMILES)
52.1 nM | ≥ 50000 nM | 369 nM |  | COc1nc(OCc2cccc(-c3cccc(COc4nc(OC)c(C5=NCCN5)cc4Cl)c3C)c2C)c(Cl)cc1C1=NCCN1 [Example 30, 6,6′-(((2,2′-dimethyl-[1,1′-biphenyl]-3,3′-diyl)bis(methylene))bis(oxy))bis(5-chloro-3-(4,5-dihydro-1H-imidazol-2-yl)-2-methoxypyridine)]
176 nM | 138 nM | ≥ 10000 nM |  | COc1nc(OCc2cccc(-c3cccc(COc4nc(OC)c(CN[C@@H](C)CC(=O)O)cc4Cl)c3C)c2C)c(Cl)cc1CN[C@@H](C)CC(=O)O [Example 74, (3S,3′S)-3,3′-((((((2,2′-dimethyl-[1,1′-biphenyl]-3,3′-diyl)bis(methylene))bis(oxy))bis(5-chloro-2-methoxypyridine-6,3-diyl))bis(methylene))bis(azanediyl))dibutyric acid]
156 nM | 352 nM |  | 5.8 nM | Cc1c(COc2cc(OCc3cncc(C#N)c3)c(CNC[C@@H](O)CC(N)=O)cc2Cl)cccc1-c1cccc(COc2cc(OCc3cncc(C#N)c3)c(CNC[C@@H](O)CC(N)=O)cc2Cl)c1C [Example 165, (3S,3′S)-4,4′-((((((2,2′-dimethyl-[1,1′-biphenyl]-3,3′-diyl)bis(methylene))bis(oxy))bis(5-chloro-2-((5-cyanopyridin-3-yl)methoxy)-4,1-phenylene))bis(methylene))bis(azanediyl))bis(3-hydroxybutanamide)]
41.6 nM | 139 nM |  | 2 nM | COc1nc(OCc2cccc(-c3cccc(COc4nc(OC)c(CNC[C@H](O)C(=O)O)cc4Cl)c3C)c2C)c(Cl)cc1CNC[C@H](O)C(=O)O [Example 166, (2S,2′S)-3,3′-((((((2,2′-dimethyl-[1,1′-biphenyl]-3,3′-diyl)bis(methylene))bis(oxy))bis(5-chloro-2-methoxypyridine-6,3-diyl))bis(methylene))bis(azanediyl))bis(2-hydroxypropanoic acid)]
161 nM | 672 nM |  | 0.2 nM | Cc1c(COc2cc(OCc3cncc(C#N)c3)c(CNC[C@@H](O)CC(=O)O)cc2Cl)cccc1-c1cccc2c1CCN2C(=O)c1ccc(CNC[C@@H](O)CC(=O)O)c(OCc2cncc(C#N)c2)c1 [Example 206, (S)-4-((4-(4-(3-((4-((((S)-3-Carboxy-2-hydroxypropyl)amino)methyl)-2-chloro-5-((5-cyanopyridin-3-yl)methoxy)phenoxy)methyl)-2-methylphenyl)indoline-1-carbonyl)-2-((5-cyanopyridin-3-yl)methoxy)benzyl)amino)-3-hydroxybutanoic acid]
166 nM | 275 nM |  | 0.6 nM | COc1nc(OCc2cccc(-c3cccc(COc4nc(OC)c(CNC[C@@H](O)CC(=O)O)cc4I)c3C)c2C)c(I)cc1CNC[C@@H](O)CC(=O)O [Example 241, (3S,3′S)-4,4′-((((((2,2′-dimethyl-[1,1′-biphenyl]-3,3′-diyl)bis(methylene))bis(oxy))bis(5-iodo-2-methoxypyridine-6,3-diyl))bis(methylene))bis(azanediyl))bis(3-hydroxybutanoic acid)]
90.6 nM | 393 nM |  | 0.2 nM | COc1nc(OCc2cccc(-c3cccc(COc4nc(OC)c(CNC[C@@H](O)CC(=O)O)cc4C#N)c3C)c2C)c(C#N)cc1CNC[C@@H](O)CC(=O)O [Example 243, (3S,3′S)-4,4′-((((((2,2′-dimethyl-[1,1′-biphenyl]-3,3′-diyl)bis(methylene))bis(oxy))bis(5-cyano-2-methoxypyridine-6,3-diyl))bis(methylene))bis(azanediyl))bis(3-hydroxybutanoic acid)]
208 nM | 592 nM |  | 0.3 nM | Cc1c(COc2cc(OCC3CCOC3)c(CNC[C@@H](O)CC(=O)O)cc2Cl)cccc1-c1cccc(COc2cc(OCC3CCOC3)c(CNC[C@@H](O)CC(=O)O)cc2Cl)c1C (stereo partly drawn) [Example 280, (3S,3′S)-4,4′-((((((2,2′-dimethyl-[1,1′-biphenyl]-3,3′-diyl)bis(methylene))bis(oxy))bis(5-chloro-2-((tetrahydrofuran-3-yl)methoxy)-4,1-phenylene))bis(methylene))bis(azanediyl))bis(3-hydroxybutanoic acid)]

From patent US12590062B2, “PD-1/PD-L1 inhibitors” (Gilead Sciences, Inc., priority 2017, dated 2026)
